Assay results reported in ChEMBL document CHEMBL1132832, “Programmed cell death (PCD) associated with the stilbene motif of arotinoids: discovery of novel apoptosis inducer agents possessing activity on multidrug resistant tumor cells” (Bioorg Med Chem Lett, 2000).

Legend:
Format in all cases: functional, cell-based
[1] = tested on: HL-60; experiment: In vitro cytotoxicity against HL60 cells.; settings: Homo sapiens
[2] = tested on: HL-60; experiment: In vitro apoptotic activity against HL60 cells after 48 hr of treatment.; settings: Homo sapiens, HL-60, 48 h
[3] = tested on: HuT78; experiment: The compound evaluated for apoptotic activity against multi drug resistant HUT 78 cells (the results were obtained after 48 hr treatment); settings: Homo sapiens, HuT78, 48 h
[4] = tested on: HuT78; experiment: The compound evaluated for Cytotoxic activity against multi drug resistant HUT 78 cells (the results were obtained after 48 hr treatment); settings: Homo sapiens, HuT78, 48 h
[5] = tested on: HL-60; experiment: The compound evaluated for Cytotoxic activity against multi drug resistant HL60R cells (the results were obtained after 48 hr treatment); settings: Homo sapiens, HL-60, 48 h
[6] = tested on: HL-60; experiment: The compound evaluated for apoptotic activity against multi drug resistant HL60 R cells (the results were obtained after 48 hr treatment); settings: Homo sapiens, HL-60, 48 h
[7] = tested on: K562; experiment: The compound evaluated for apoptotic activity against K562 cells (the results were obtained after 48 hr treatment); settings: Homo sapiens, K562, 48 h
[8] = tested on: K562; experiment: The compound evaluated for Cytotoxic activity against multi drug resistant K562 cells (the results were obtained after 48 hr treatment); settings: Homo sapiens, K562, 48 h
[9] = tested on: HuT78; experiment: The compound evaluated for apoptotic activity against HUT 78 cells (the results were obtained after 48 hr treatment); settings: Homo sapiens, HuT78, 48 h

Q: How did the IC50 [1] turn out when `C/C(=C\c1ccc(C(=O)O)cc1)c1ccc2c(c1)C(C)(C)CCC2(C)C` was run?
A: Its IC50 is 46 µM.

Q: What about the AC50 [2] of the same compound?
A: Its AC50 is over 100 µM.

Q: Which IC50 [1] does the source give for `COc1ccc(/C=C(/C)c2ccc3c(c2)C(C)(C)CCC3(C)C)cc1N` here?
A: Its IC50 is 42 µM.

Q: What about the AC50 [2] of the same compound?
A: Its AC50 is 90 µM.

Q: For `COc1ccc(/C=C(\C)c2ccc3c(c2)C(C)(C)CCC3(C)C)cc1N`, which IC50 [1] is on record?
A: The IC50 was 20 µM.

Q: And the AC50 [2]?
A: The AC50 was 40 µM.

Q: What does the source list for `C/C(=C/c1ccc(C(=O)O)cc1)c1ccc2c(c1)C(C)(C)CCC2(C)C`?
A: IC50 [1]: 10 µM; AC50 [2]: 40 µM

Q: With `C/C(=C\c1cccc(C(=O)O)c1)c1ccc2c(c1)C(C)(C)CCC2(C)C` as the compound, how does the IC50 [1] read?
A: Its IC50 is over 100 µM.

Q: What about the AC50 [2] of the same compound?
A: Its AC50 is over 100 µM.

Q: How did the IC50 [1] turn out when `COc1ccc(/C=C/c2ccc3c(c2)C(C)(C)CCC3(C)C)cc1` was run?
A: The IC50 was 50 µM.

Q: And the AC50 [2]?
A: The AC50 was over 100 µM.

Q: What does the source list for `COc1ccc(/C=C\c2ccc3c(c2)C(C)(C)CCC3(C)C)cc1`?
A: IC50 [1]: 50 µM; AC50 [2]: > 100 µM

Q: How did the IC50 [1] turn out when `COc1ccc(/C=C/c2ccc3c(c2)C(C)(C)CCC3(C)C)cc1N` was run?
A: Its IC50 is 61 µM.

Q: And the AC50 [2]?
A: The AC50 was 85 µM.

Q: `C/C(=C/c1cccc(C(=O)O)c1)c1ccc2c(c1)C(C)(C)CCC2(C)C` was tested. Which IC50 [1] did it give?
A: The IC50 was 50 µM.

Q: And the AC50 [2]?
A: Its AC50 is 80 µM.

Q: With `CC1(C)CCC(C)(C)c2cc(/C=C\c3ccc(N)cc3)ccc21` as the compound, how does the IC50 [1] read?
A: The IC50 was 18 µM.

Q: And the AC50 [3]?
A: Its AC50 is over 100 µM.

Q: What about the IC50 [4] of the same compound?
A: Its IC50 is 43 µM.

Q: What about the IC50 [5] of the same compound?
A: Its IC50 is 25 µM.

Q: What about the AC50 [6] of the same compound?
A: The AC50 was over 100 µM.

Q: What about the AC50 [7] of the same compound?
A: The AC50 was over 100 µM.

Q: What about the AC50 [2] of the same compound?
A: Its AC50 is 38 µM.

Q: And the IC50 [8]?
A: The IC50 was 50 µM.

Q: How did the IC50 [1] turn out when `COc1ccc(/C=C\c2ccc3c(c2)C(C)(C)CCC3(C)C)cc1N` was run?
A: The IC50 was 25 µM.

Q: What about the IC50 [4] of the same compound?
A: Its IC50 is 22 µM.

Q: And the IC50 [5]?
A: The IC50 was 48 µM.

Q: What about the AC50 [6] of the same compound?
A: The AC50 was 87 µM.

Q: And the AC50 [9]?
A: Its AC50 is 46 µM.

Q: What about the AC50 [7] of the same compound?
A: The AC50 was 50 µM.

Q: And the AC50 [2]?
A: The AC50 was 50 µM.

Q: What about the IC50 [8] of the same compound?
A: Its IC50 is 42 µM.

Q: How did the IC50 [1] turn out when `CC1(C)CCC(C)(C)c2cc(/C=C/c3ccc(N)cc3)ccc21` was run?
A: The IC50 was 18 µM.

Q: And the AC50 [2]?
A: The AC50 was 38 µM.

Q: Which results are given for `CC1(C)CCC(C)(C)c2cc(/C=C\c3cccc(N)c3)ccc21`?
A: IC50 [1]: 10 µM; IC50 [4]: 5 µM; IC50 [5]: 15 µM; AC50 [6]: 25 µM; AC50 [9]: 10 µM; AC50 [7]: 27 µM; AC50 [2]: 10 µM; IC50 [8]: 13 µM

Q: `C/C(=C/c1ccccc1C(=O)O)c1ccc2c(c1)C(C)(C)CCC2(C)C` was tested. Which IC50 [1] did it give?
A: Its IC50 is 52 µM.

Q: And the AC50 [2]?
A: The AC50 was 90 µM.

Q: Which results are given for `CC1(C)CCC(C)(C)c2cc(/C=C/c3cccc(N)c3)ccc21`?
A: IC50 [1]: 20 µM; AC50 [2]: 40 µM

Q: `C/C(=C\c1ccccc1C(=O)O)c1ccc2c(c1)C(C)(C)CCC2(C)C` was tested. Which IC50 [1] did it give?
A: Its IC50 is over 100 µM.

Q: And the AC50 [2]?
A: Its AC50 is over 100 µM.

Q: Which IC50 [1] does the source give for `C/C(=C/c1cc(C(=O)O)no1)c1ccc2c(c1)C(C)(C)CCC2(C)C` here?
A: The IC50 was 26 µM.

Q: What about the AC50 [2] of the same compound?
A: The AC50 was 47 µM.

Q: Which AC50 [2] does the source give for `CC1=C(/C=C/C(C)=C/C=C/C(C)=C/C(=O)O)C(C)(C)CCC1` [TRETINOIN] here?
A: Its AC50 is over 100 µM.
